According to US11124494B2, “Aryl heterocyclic piperidinone formyl peptide 2 receptor and formyl peptide 1 receptor agonists” (Bristol-Myers Squibb Company, priority 2017, dated 2021):

Each molecule was assayed against human FPR2 receptors (Homo sapiens (Human), UniProt P25090) (assay: FPR2 cyclic adenosine monophosphate (cAMP) assay). Details: CHO cells overexpressing human FPR2; forskolin 5 μM, IBMX 200 μM; inhibition of cAMP production; read-out: hFPR2 cAMP2 EC50.
Assay type: cell-based
Experimental: (§1) FPR2 and FPR1 Cyclic Adenosine Monophosphate (cAMP) Assays. A mixture of forskolin (5 μM final for FPR2 or 10 μM final for FPR1) and IBMX (200 μM final) were added to 384-well Proxiplates (Perkin-Elmer) pre-dotted with test compounds in DMSO (1% final) at final concentrations in the range of 1.7 nM to 100 μM. Chinese Hamster Ovary cells (CHO) overexpressing human FPR1 or human FPR2 receptors were cultured in F-12 (Ham's) medium supplemented with 10% qualified FBS, 250 μg/ml zeocin and 300 μg/ml hygromycin (Life Technologies). Reactions were initiated by adding 2,000 human FPR2 cells per well or 4,000 human FPR1 cells per well in Dulbecco's PBS (with calcium and magnesium) (Life Technologies) supplemented with 0.1% BSA (Perkin-Elmer). The reaction mixtures were incubated for 30 min at room temperature. The level of intracellular cAMP was determined using the HTRF HiRange cAMP assay reagent kit (Cisbio) according to manufacturer's instruction. Solutions of cryptate conjugated anti-cAMP and d2 flurorophore-labelled cAMP were made in a supplied lysis buffer separately. Upon completion of the reaction, the cells were lysed with equal volume of the d2-cAMP solution and anti-cAMP solution. After a 1-h room temperature incubation, time-resolved fluorescence intensity was measured using the Envision (Perkin-Elmer) at 400 nm excitation and dual emission at 590 nm and 665 nm. A calibration curve was constructed with an external cAMP standard at concentrations ranging from 1 μM to 0.1 pM by plotting the fluorescent intensity ratio from 665 nm emission to the intensity from the 590 nm emission against cAMP concentrations. The potency and activity of a compound to inhibit cAMP production was then determined by fitting to a 4-parametric logistic equation from a plot of cAMP level versus compound concentrations.

Chain of human FPR2 receptors (P25090 whole entry): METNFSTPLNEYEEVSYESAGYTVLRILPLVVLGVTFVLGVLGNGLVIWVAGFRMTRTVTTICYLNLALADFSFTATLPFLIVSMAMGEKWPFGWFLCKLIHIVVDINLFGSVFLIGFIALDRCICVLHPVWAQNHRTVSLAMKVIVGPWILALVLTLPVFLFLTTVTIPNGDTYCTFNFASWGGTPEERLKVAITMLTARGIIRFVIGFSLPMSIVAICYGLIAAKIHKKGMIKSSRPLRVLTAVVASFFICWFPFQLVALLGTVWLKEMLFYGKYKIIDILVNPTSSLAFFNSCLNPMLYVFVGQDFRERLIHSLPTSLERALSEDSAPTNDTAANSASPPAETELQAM

| EC50 | Compound |
| --- | --- |
| 0.0007 µM | CS(=O)(=O)NCC1(c2ccc(N3CCC[C@@H](NC(=O)Nc4cnc(Cl)cn4)C3=O)cc2)CCC1 [Example 6] |
| 0.00017 µM | CS(=O)(=O)NCC1(c2ccc(N3CCC[C@@H](NC(=O)Nc4ccc(C(F)(F)F)cc4)C3=O)cc2F)CC1 [Example 18] |
| 0.00091 µM | CS(=O)(=O)NCC1(c2ccc(N3CCC[C@@H](NC(=O)Nc4cnc(Cl)cn4)C3=O)cc2)CC1 [Example 27] |
| 0.98 µM | CS(=O)(=O)NCC1(c2ccc(N3CCC[C@H](NC(=O)Nc4ncc(Cl)cc4F)C3=O)cc2)CC1 [Example 41] |
| 0.00021 µM | CS(=O)(=O)NCC1(c2ccc(N3CCC[C@@H](NC(=O)Nc4ccc(C(F)(F)F)cc4)C3=O)cc2)CC1 [Example 42] |

Same assay, conditions: hFPR2 Assay, CHO cells overexpressing human FPR2; potency bins; read-out: hFPR2 agonist activity EC50 values

| EC50 | Compound |
| --- | --- |
| 0.1 to 1.25 µM | CS(=O)(=O)NCC1(c2ccc(N3CCC[C@H](NC(=O)Nc4ccc(C(F)(F)F)nc4)C3=O)cc2)CCC1 [Example 30] |
| ≤ 0.01 µM | CS(=O)(=O)NCC1(c2ccc(N3CCC[C@@H](NC(=O)Nc4ccc(C(F)(F)F)nc4)C3=O)cc2)CCCC1 [Example 31] |
| 0.1 to 1.25 µM | CS(=O)(=O)NCC1(c2ccc(N3CCC[C@H](NC(=O)Nc4ccc(C(F)(F)F)nc4)C3=O)cc2)CCCC1 [Example 32] |
| ≤ 0.01 µM | CS(=O)(=O)NCC1(c2ccc(N3CCC[C@@H](NC(=O)Nc4ccc(C(F)(F)F)nc4)C3=O)cc2)CC1 [Example 33] |
| 0.01 to 0.1 µM | COc1cnc(NC(=O)N[C@@H]2CCCN(c3ccc(C4(CNS(C)(=O)=O)CC4)cc3)C2=O)c(F)c1 [Example 34] |
| 0.1 to 1.25 µM | CS(=O)(=O)NCC1(c2ccc(N3CCC[C@@H](NC(=O)Nc4ncc(Cl)cc4Cl)C3=O)cc2)CC1 [Example 35] |
| ≤ 0.01 µM | CS(=O)(=O)NCC1(c2ccc(N3CCC[C@@H](NC(=O)Nc4ccc(OC(F)F)nc4)C3=O)cc2)CC1 [Example 36] |
| 0.01 to 0.1 µM | CS(=O)(=O)NCC1(c2ccc(N3CCC[C@@H](NC(=O)Nc4cnc(C#N)cn4)C3=O)cc2)CC1 [Example 37] |
| 0.1 to 1.25 µM | CS(=O)(=O)NCC1(c2ccc(N3CCC[C@@H](NC(=O)Nc4ccc(OC(F)F)nc4)C3=O)cc2)CC1 [Example 38] |
| ≤ 0.01 µM | CS(=O)(=O)NCC1(c2ccc(N3CCC[C@@H](NC(=O)Nc4ncc(Cl)cc4F)C3=O)cc2)CC1 [Example 39] |
| 0.01 to 0.1 µM | CS(=O)(=O)NCC1(c2ccc(N3CCC[C@@H](NC(=O)Nc4ncc(C(F)(F)F)cc4F)C3=O)cc2)CC1 [Example 40] |
| 0.01 to 0.1 µM | CS(=O)(=O)NCC1(c2ccc(N3CCC[C@H](NC(=O)Nc4ccc(C(F)(F)F)cc4)C3=O)cc2)CC1 [Example 43] |
| 0.1 to 1.25 µM | CS(=O)(=O)NCC1(c2ccc(N3CCC[C@H](NC(=O)Nc4ccc(C(F)(F)F)nc4)C3=O)cc2)CC1 [Example 45] |
| ≤ 0.01 µM | CS(=O)(=O)NCC1(c2ccc(N3CCC[C@@H](NC(=O)Nc4ccc(C(F)(F)F)cn4)C3=O)cc2)CC1 [Example 46] |
| 0.1 to 1.25 µM | CS(=O)(=O)NCC1(c2ccc(N3CCC[C@H](NC(=O)Nc4ccc(C(F)(F)F)cn4)C3=O)cc2)CC1 [Example 47] |
| 0.1 to 1.25 µM | N#CC1(c2ccc(N3CCC[C@H](NC(=O)Nc4ccc(C(F)(F)F)cc4)C3=O)cc2)CC1 [Example 48] |
| ≤ 0.01 µM | N#CC1(c2ccc(N3CCC[C@@H](NC(=O)Nc4ccc(C(F)(F)F)cc4)C3=O)cc2)CC1 [Example 49] |
| ≤ 0.01 µM | O=C(Nc1ccc(Cl)cc1)N[C@@H]1CCCN(c2ccc(C3CCOCC3)cc2)C1=O [Example 50] |
| 0.1 to 1.25 µM | O=C(Nc1ncc(Cl)cc1F)N[C@@H]1CCCN(c2ccc(C3(CN4CCOCC4)CC3)cc2)C1=O [Example 54, (R)-1-(5-chloro-3-fluoropyridin-2-yl)-3-(1-(4-(1-(morpholinomethyl)cyclopropyl)phenyl)-2-oxopiperidin-3-yl)urea] |
| 0.1 to 1.25 µM | O=C(Nc1ccc(C(F)(F)F)nc1)N[C@@H]1CCCN(c2ccc(C3(CN4CCCC4)CCC3)cc2)C1=O [Example 56, (R)-1-(2-oxo-1-(4-(1-(pyrrolidin-1-ylmethyl)cyclobutyl)phenyl)piperidin-3-yl)-3-(6-(trifluoromethyl)pyridin-3-yl)urea] |
| 0.1 to 1.25 µM | O=C(Nc1ccc(C(F)(F)F)cn1)N[C@@H]1CCCN(c2ccc(C3(CN4CCCC4)CCC3)cc2)C1=O [Example 59, (R)-1-(2-oxo-1-(4-(1-(pyrrolidin-1-ylmethyl)cyclobutyl)phenyl)piperidin-3-yl)-3-(5-(trifluoromethyl)pyridin-2-yl)urea] |
| 0.1 to 1.25 µM | O=C(Nc1ccc(C(F)(F)F)cn1)N[C@@H]1CCCN(c2ccc(C3(CN4CCCC4)CCCC3)cc2)C1=O [Example 60, (R)-1-(2-oxo-1-(4-(1-(pyrrolidin-1-ylmethyl)cyclopentyl)phenyl)piperidin-3-yl)-3-(5-(trifluoromethyl)pyridin-2-yl)urea] |
| 0.1 to 1.25 µM | O=C(Nc1ccc(C(F)(F)F)nc1)N[C@@H]1CCCN(c2ccc(C3(CN4CCOCC4)CCCC3)cc2)C1=O [Example 61, (R)-1-(1-(4-(1-(morpholinomethyl)cyclopentyl)phenyl)-2-oxopiperidin-3-yl)-3-(6-(trifluoromethyl)pyridin-3-yl)urea] |
| 0.01 to 0.1 µM | O=C(Nc1ccc(C(F)(F)F)cn1)N[C@@H]1CCCN(c2ccc(C3(CN4CCOCC4)CCC3)cc2)C1=O [Example 63, (R)-1-(1-(4-(1-(morpholinomethyl)cyclobutyl)phenyl)-2-oxopiperidin-3-yl)-3-(5-(trifluoromethyl)pyridin-2-yl)urea] |
| 0.01 to 0.1 µM | O=C(Nc1ccc(C(F)(F)F)nc1)N[C@@H]1CCCN(c2ccc(C3(CN4CCOCC4)CC3)cc2)C1=O [Example 64, (R)-1-(1-(4-(1-(morpholinomethyl)cyclopropyl)phenyl)-2-oxopiperidin-3-yl)-3-(6-(trifluoromethyl)pyridin-3-yl)urea] |
| 0.1 to 1.25 µM | O=C(Nc1ccc(C(F)(F)F)cn1)N[C@@H]1CCCN(c2ccc(C3(CN4CCOCC4)CCCC3)cc2)C1=O [Example 65, (R)-1-(1-(4-(1-(morpholinomethyl)cyclopentyl)phenyl)-2-oxopiperidin-3-yl)-3-(5-(trifluoromethyl)pyridin-2-yl)urea] |
| 0.1 to 1.25 µM | O=C(Nc1ccc(C(F)(F)F)nc1)N[C@@H]1CCCN(c2ccc(C3(CN4CCCC4)CC3)cc2)C1=O [Example 66, (R)-1-(2-oxo-1-(4-(1-(pyrrolidin-1-ylmethyl)cyclopropyl)phenyl)piperidin-3-yl)-3-(6-(trifluoromethyl)pyridin-3-yl)urea] |
| 0.1 to 1.25 µM | CN(C)CC1(c2ccc(N3CCC[C@@H](NC(=O)Nc4ccc(C(F)(F)F)nc4)C3=O)cc2)CC1 [Example 67, (R)-1-(1-(4-(1-((dimethylamino)methyl)cyclopropyl)phenyl)-2-oxopiperidin-3-yl)-3-(6-(trifluoromethyl)pyridin-3-yl)urea] |
| 0.01 to 0.1 µM | CS(=O)(=O)NCC1(c2ccc(N3C[C@H](O)C[C@@H](NC(=O)Nc4ncc(C(F)(F)F)cc4F)C3=O)cc2)CC1 [Example 68, N-((1-(4-((3R,5R)-3-(3-(3-Fluoro-5-(trifluoromethyl)pyridin-2-yl)ureido)-5-hydroxy-2-oxopiperidin-1-yl)phenyl)cyclopropyl)methyl)methanesulfonamide] |
| 0.01 to 0.1 µM | CS(=O)(=O)NCC1(c2ccc(N3C[C@H](O)C[C@@H](NC(=O)Nc4ncc(Cl)cc4F)C3=O)cc2)CC1 [Example 70] |

These molecules were tested against human FPR1 receptors (Homo sapiens (Human), UniProt P21462) (assay: FPR1 cyclic adenosine monophosphate (cAMP) assay). Details: CHO cells overexpressing human FPR1; forskolin 10 μM, IBMX 200 μM; inhibition of cAMP production; read-out: hFPR1 cAMP EC50.
Chain of human FPR1 receptors (P21462 whole entry): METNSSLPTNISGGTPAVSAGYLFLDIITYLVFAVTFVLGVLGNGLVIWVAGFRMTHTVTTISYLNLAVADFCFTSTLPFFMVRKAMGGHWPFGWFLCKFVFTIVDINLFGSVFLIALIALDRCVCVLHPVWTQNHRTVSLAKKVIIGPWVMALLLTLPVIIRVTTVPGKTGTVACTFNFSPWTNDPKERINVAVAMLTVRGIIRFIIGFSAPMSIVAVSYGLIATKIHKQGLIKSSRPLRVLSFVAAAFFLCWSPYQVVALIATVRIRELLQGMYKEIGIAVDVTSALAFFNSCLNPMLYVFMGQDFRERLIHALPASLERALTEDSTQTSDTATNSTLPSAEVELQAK
Assay type: cell-based
Experimental: as §1

| EC50 | Compound |
| --- | --- |
| 0.1 µM | CS(=O)(=O)NCC1(c2ccc(N3CCC[C@@H](NC(=O)Nc4cnc(Cl)cn4)C3=O)cc2)CCC1 [Example 6] |
| 0.002 µM | CS(=O)(=O)NCC1(c2ccc(N3CCC[C@@H](NC(=O)Nc4ccc(C(F)(F)F)cc4)C3=O)cc2F)CC1 [Example 18] |
| 0.13 µM | CS(=O)(=O)NCC1(c2ccc(N3CCC[C@@H](NC(=O)Nc4cnc(Cl)cn4)C3=O)cc2)CC1 [Example 27] |
| 7.6 µM | CS(=O)(=O)NCC1(c2ccc(N3CCC[C@H](NC(=O)Nc4ncc(Cl)cc4F)C3=O)cc2)CC1 [Example 41] |
| 0.033 µM | CS(=O)(=O)NCC1(c2ccc(N3CCC[C@@H](NC(=O)Nc4ccc(C(F)(F)F)cc4)C3=O)cc2)CC1 [Example 42] |
